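Tested at 5 concentrations; 48 h exposure; 96-well plates; endpoints linearly interpolated, else capped at highest concentration. GI50 = concentration required for 50% inhibition of growth.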 The source made the active and inactive calls. Rule as the data show it: active = GI50 up to about 1.1 µM and inactive = higher.
Legend:
Assay in all cases: growth of human tumour cells (NCI), 48 h
SR = tested on: SR
BT-549 = tested on: BT-549
HT-29 = tested on: HT-29
CAKI-1 = tested on: CAKI-1
Hs-578T = tested on: Hs-578T
SF-539 = tested on: SF-539
LOX IMVI = tested on: LOX IMVI
MOLT-4 = tested on: MOLT-4
NCI-H460 = tested on: NCI-H460
COLO 205 = tested on: COLO 205
SF-295 = tested on: SF-295
SNB-75 = tested on: SNB-75
HOP-62 = tested on: HOP-62
TK-10 = tested on: TK-10
786-0 = tested on: 786-0
IGROV-1 = tested on: IGROV-1
DU-145 = tested on: DU-145
SK-OV-3 = tested on: SK-OV-3
PC-3 = tested on: PC-3
SF-268 = tested on: SF-268

SMILES | GI50 (SR) | GI50 (BT-549) | GI50 (HT-29) | GI50 (CAKI-1) | GI50 (Hs-578T) | GI50 (SF-539) | GI50 (LOX IMVI) | GI50 (MOLT-4) | GI50 (NCI-H460) | GI50 (COLO 205) | GI50 (SF-295) | GI50 (SNB-75) | GI50 (HOP-62) | GI50 (TK-10) | GI50 (786-0) | GI50 (IGROV-1) | GI50 (DU-145) | GI50 (SK-OV-3) | GI50 (PC-3) | GI50 (SF-268)
Clc1ccc(OCC2NC3CCC2CC3)cn1 (stereo not given) | 18.7 µM (inactive) | 68.7 µM (inactive) | 17.9 µM (inactive) | 42.5 µM (inactive) | 57.1 µM (inactive) | 20.7 µM (inactive) | 18.4 µM (inactive) | 17.2 µM (inactive) | 21.3 µM (inactive) | 17.1 µM (inactive) | 19.8 µM (inactive) | 61 µM (inactive) | 22.8 µM (inactive) | 42.3 µM (inactive) | 18.3 µM (inactive) | 38.2 µM (inactive) | 59.3 µM (inactive) | 52.7 µM (inactive) | 25.6 µM (inactive) | 51.6 µM (inactive)
N#Cc1ccc(OC(=O)c2ccc(NC(=N)N)cc2)cc1.c1ccncc1 | 51.9 µM (inactive) | 88.7 µM (inactive) | 53.7 µM (inactive) | 80 µM (inactive) | > 100 µM (inactive) | 73.6 µM (inactive) | 80.7 µM (inactive) | 38.5 µM (inactive) | > 100 µM (inactive) | 39.1 µM (inactive) | > 100 µM (inactive) | 43.9 µM (inactive) | > 100 µM (inactive) | > 100 µM (inactive) | 66.1 µM (inactive) | > 100 µM (inactive) | > 100 µM (inactive) | > 100 µM (inactive) | > 100 µM (inactive) | 51.1 µM (inactive)
CCOC(=O)c1ccc2c(c1)nc1n2C(c2c(F)cccc2F)SC1 (stereo not given) | 25.6 µM (inactive) | 80.5 µM (inactive) | 19 µM (inactive) | 78.3 µM (inactive) | 26.2 µM (inactive) | 21.4 µM (inactive) | 21.1 µM (inactive) | 26.8 µM (inactive) | 26.3 µM (inactive) | 14.2 µM (inactive) | 21.5 µM (inactive) | 62.5 µM (inactive) | 31.9 µM (inactive) | 80.9 µM (inactive) | 23.4 µM (inactive) | 0.951 µM (active) | 30.6 µM (inactive) | 94.6 µM (inactive) | 21.3 µM (inactive) | 32.8 µM (inactive)
COc1ccc(-c2c(C#N)c(S)n(NS(=O)(=O)c3ccccc3)c(=O)c2C#N)cc1 | 23.1 µM (inactive) | 14.3 µM (inactive) | 45.6 µM (inactive) | > 72.8 µM (inactive) | 49 µM (inactive) | 24.5 µM (inactive) | 35.9 µM (inactive) | 53.2 µM (inactive) | 48.5 µM (inactive) | 58.1 µM (inactive) | 77.3 µM (inactive) | > 100 µM (inactive) | > 100 µM (inactive) | 29.3 µM (inactive) | 35.2 µM (inactive) | 31.9 µM (inactive) | > 100 µM (inactive) | > 100 µM (inactive) | 37.7 µM (inactive) | 62.7 µM (inactive)
O=C(O)c1ccc(C2=Nc3cccc4cccc(c34)N2)cc1 | 30.6 µM (inactive) | > 100 µM (inactive) | > 100 µM (inactive) | > 100 µM (inactive) | > 100 µM (inactive) | > 100 µM (inactive) | > 100 µM (inactive) | 25.4 µM (inactive) | > 100 µM (inactive) | > 100 µM (inactive) | > 100 µM (inactive) | > 100 µM (inactive) | > 100 µM (inactive) | > 100 µM (inactive) | > 100 µM (inactive) | > 100 µM (inactive) | > 100 µM (inactive) | > 100 µM (inactive) | > 100 µM (inactive) | > 100 µM (inactive)
Cc1ccc(C(=O)O)c(CC2Cc3c(C)cccc3C2=O)c1 (stereo not given) | > 100 µM (inactive) | > 100 µM (inactive) | > 100 µM (inactive) | > 100 µM (inactive) | > 100 µM (inactive) | > 100 µM (inactive) | 90.4 µM (inactive) | > 100 µM (inactive) | > 100 µM (inactive) | > 100 µM (inactive) | > 100 µM (inactive) | > 100 µM (inactive) | > 100 µM (inactive) | > 100 µM (inactive) | > 100 µM (inactive) | > 100 µM (inactive) | > 100 µM (inactive) | > 100 µM (inactive) | > 100 µM (inactive) | > 100 µM (inactive)
O=C1N[C@@H]2c3c(csc3Br)C(=O)[C@@H]2O1 | 26.1 µM (inactive) | 38.5 µM (inactive) | 38.5 µM (inactive) | 20.8 µM (inactive) | 31 µM (inactive) | 33.5 µM (inactive) | 19 µM (inactive) | 19.9 µM (inactive) | 43.4 µM (inactive) | 35 µM (inactive) | 59.2 µM (inactive) | 48.4 µM (inactive) | 53.2 µM (inactive) | 27.4 µM (inactive) | 33.2 µM (inactive) | 26.5 µM (inactive) | 39.1 µM (inactive) | 90.4 µM (inactive) | 41.6 µM (inactive) | 27 µM (inactive)
COc1cc(O)c(C(=O)/C=C/c2ccc(O)cc2)cc1Oc1ccc(C(=O)/C=C/c2ccc(O)cc2)c(O)c1 [RHUSCHALCONE IV] | 2.38 µM (inactive) | 2.92 µM (inactive) | 1.36 µM (inactive) | 3.5 µM (inactive) | 6.52 µM (inactive) | 2.37 µM (inactive) | 3.4 µM (inactive) | 3.13 µM (inactive) | 2.88 µM (inactive) | 1.88 µM (inactive) | 3.76 µM (inactive) | 4.21 µM (inactive) | 4.47 µM (inactive) | 3.42 µM (inactive) | 2.23 µM (inactive) | 1.67 µM (inactive) | 2.29 µM (inactive) | 2.88 µM (inactive) | 3.78 µM (inactive) | 2.96 µM (inactive)
O=C1Oc2ccccc2C(=O)/C1=C/NC(=S)NCCc1ccccc1 | 14.6 µM (inactive) | 20.2 µM (inactive) | 68.1 µM (inactive) | 35.3 µM (inactive) | 36.6 µM (inactive) | 31.2 µM (inactive) | 42.9 µM (inactive) | 57.1 µM (inactive) | 23.8 µM (inactive) | 48.4 µM (inactive) | 38.5 µM (inactive) | 22.7 µM (inactive) | 51.8 µM (inactive) | 32.1 µM (inactive) | 38.7 µM (inactive) | 27 µM (inactive) | 23.4 µM (inactive) | 33.6 µM (inactive) | 39.8 µM (inactive) | 77.1 µM (inactive)
COc1cc2c(cc1OC(=O)c1cc3ccccc3[nH]1)N=C[C@@H]1CCCN1C2=O | 0.174 µM (active) | 0.638 µM (active) | 0.185 µM (active) | 0.294 µM (active) | 1.3 µM (inactive) | 0.281 µM (active) | 0.332 µM (active) | 0.18 µM (active) | 0.344 µM (active) | 0.202 µM (active) | 1.03 µM (active) | 1.41 µM (inactive) | 0.363 µM (active) | 0.355 µM (active) | 0.261 µM (active) | 0.274 µM (active) | 0.425 µM (active) | 1.35 µM (inactive) | 0.585 µM (active) | 0.706 µM (active)

— ChEMBL document CHEMBL1201862, “PubChem BioAssay data set” (2004)
